Laboratory results taken from patent US8101628B2, “Imidazolidinonyl aminopyrimidine compounds for the treatment of cancer” (Eli Lilly and Company, priority 2007, dated 2012).
Like-named read-outs stand apart in the source and are kept apart here.

What was measured:
[1] = in man, cited from earlier work
[2] = tested on: HCT116, A549 and NCIH460 murine xenografts; details: cited from earlier work
[3] = molecular target: T1, Plk1-Flag-His6 tag fusion enzyme (Human Plk1) (Homo sapiens, UniProt P53350); assay: Plk1 Inhibition Assay; type: biochemical; details: 5.0 μM ATP, GST-Cdc25c (1-206) substrate, 60 min room temperature; MSR 3.6; read-out: Plk1 IC50 (absolute IC50)
T1 construct: made in house; host or cells: Sf9 cells (baculovirus, pFastBac vector)
T1 sequence (P53350 whole entry, the tested form may be a part): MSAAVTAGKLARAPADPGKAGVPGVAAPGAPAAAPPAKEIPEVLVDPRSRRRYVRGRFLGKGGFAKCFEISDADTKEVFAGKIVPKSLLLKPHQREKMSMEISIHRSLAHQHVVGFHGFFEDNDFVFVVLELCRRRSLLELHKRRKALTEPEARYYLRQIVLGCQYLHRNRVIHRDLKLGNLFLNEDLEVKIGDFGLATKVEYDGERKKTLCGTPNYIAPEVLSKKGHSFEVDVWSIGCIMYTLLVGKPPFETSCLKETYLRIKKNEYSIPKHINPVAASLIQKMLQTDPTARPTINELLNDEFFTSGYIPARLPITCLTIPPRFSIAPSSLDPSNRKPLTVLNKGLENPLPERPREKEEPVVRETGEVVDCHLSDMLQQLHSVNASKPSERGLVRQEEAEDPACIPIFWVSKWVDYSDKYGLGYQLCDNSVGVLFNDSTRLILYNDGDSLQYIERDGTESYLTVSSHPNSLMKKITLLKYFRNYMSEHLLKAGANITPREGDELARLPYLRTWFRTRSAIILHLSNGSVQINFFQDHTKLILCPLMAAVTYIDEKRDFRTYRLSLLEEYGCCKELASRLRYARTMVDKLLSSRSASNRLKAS
Excerpt: Human Plk1 cDNA, which may be obtained from a number of sources, such as Incyte (accession number: NM_005030), may be directly linked at one of its termini with a polynucleotide sequence expressing a His6 tag, such as the C-terminal FLAG-His6 tag, and inserted into an appropriate expression vector, such as a pFastBac™ vector (Invitrogen) and transfected into an appropriate system, such as baculovirus similar to what has been reported by Yue-Wei Qian, et al., Science 282, 1701 (1998) for xPlkk1. If a viral expression system is used, then the virus (e.g., baculovirus bearing a Plk1-Flag-His6 tag polynucleotide construct) is infected into a culture of a suitable host cell, such as Sf9 cells. […]
Plk1 kinase reactions contain Plk1-Flag-His6 tag fusion enzyme (0.2 ng/μL) in a buffer containing 50 mM HEPES, pH 7.3, 1.0 mM dithiothreitol, 5.0 μM ATP, 10 mM MgCl2, 0.01% TRITON® X-100, 0.4 μCi ^33P-ATP, and 0.06 μg/μL GST-Cdc25c (1-206) peptide. […] Wells are dried before addition of 40 μL of MicroScint™20 (Packard) and then counted on a Wallac MICROBETA® Jet. The percentage inhibition values from the 10-point concentration response data are subsequently analyzed, for example, using ACTIVITY BASE™ software (IDBS), using a 4-parameter logistic equation. Absolute IC50 values are calculated from the resulting curve fit.

[4] = tested on: HeLa Cells; assay: pHH3(S10), Mitotic Cells, and DNA Content Assays; type: cell-based; details: Homo sapiens, 23 hours exposure
Method: HeLa Cells from the American Type Culture Collection (ATCC) are plated at 200 cells/well in 96 well […] BIOCOAT™ plates, and are incubated in MEM (Minimum Essential Medium, e.g., GIBCO, catalog #11095) with 10% FBS (Fetal Bovine Serum) in 37° C., 5% CO2 for 24 hours. Cells are treated by adding compound (in 0.25% DMSO) to the medium, dosing at 10 points across the range 0.5 μM to 0.0098 μM. After 23 hours exposure to the compounds, cells are fixed, for example with the PREFER™ fixative [Anatech LTD., Catalog #414] for 30 min then are permeabilized with 0.1% TRITON® X100 in phosphate buffered saline (PBS) solution for 15 min. Cells are washed 3 times with PBS then digested with 50 μg/mL RNAse. Primary antibody, phosphohistone H3 (Upstate Cat#06-570), is added at 1:500 in PBS with 1% bovine serum albumin (BSA) to the cells over night at 4° C. After 3 PBS washes, cells are incubated with Alexa488 labeled secondary antibody (Invitrogen cat #A11008) for 1 hour at room temperature. Again they are washed 3 times with PBS, and then 15 μM propidium iodide (Molecular Probes cat #P3566) is added for 30 min to stain nuclei. Fluorescence Plates are scanned with ACUMEN EXPLORER™ [Laser-scanning fluorescence microplate cytometer (comprising of 488 nm argon ion laser excitation and multiple photomultiplier tube detection), manufactured by TTP LABTECH LTD] to measure phosphohistone H3, DNA content and mitotic cells as measured by DNA condensation. Image analyses are based on cellular fluorescent signals for identifying cells in different subpopulations. pHH3(S10) positive cells are identified by mean intensity at 500-530 nm above the threshold. Total intensity at 655-705 nm from propidium iodide/DNA is used to identify individual cells (cells with DNA content from 2N to 4N) and subpopulations in cell cycle (2N cells, 4N cells). Peak intensity at 575-640 nm is used to identify DNA condensation that is used as the marker to identify mitotic cells among 4N cells. […] The EC50 is determined by curve fitting to a four parameter logistic for each output using ACTIVITY BASE™. […]

[5] = tested on: HCT116 cells; assay: Antiproliferative Assay; type: cell-based; details: Homo sapiens, HCT-116, e.g. 72 hours exposure, Alamar Blue, n=3, MSR 3.1
Method: The effects of compounds on cell proliferation can be determined using cells and cell proliferation methods well-known in the art (Robert C. Squatrito et al., Gynecological Oncology, 58, 101-105, (1995)). For example, HCT116 cells, which may be obtained from the American Type Culture Collection, may be seeded at 2000 cells/well in 96-well plates and allowed to attach overnight in a humidified CO2 incubator at 37° C. Following the 20-24 hour incubation, half-log serially diluted compounds are added and the plates are returned to the incubator. After an appropriate length of exposure (e.g., 72 hours), cell proliferation is estimated using well-known methods. In one method, 10 μL of a tetrazolium salt, such as Alamar Blue™ is added to the cell plates. After an appropriate exposure to the dye, fluorescence (530 nm excitation, 580 nm emission) is determined. The resulting IC50 has an MSR of 3.1.

SMILES | clearance (CL) ([1]; phase II clinical trials) [mL/min] | dose-limiting toxicity [1] | activity in preclinical xenograft models [2] | IC50 [3] [nM] | EC50 ([4]; n=1, MSR 2.5, read-out: mitotic EC50) [nM] | EC50 ([4]; n=2, MSR 2.4, read-out: DNA content EC50) [nM] | EC50 ([4]; n=2, MSR 2.6, read-out: pHH3(s10) EC50) [nM] | IC50 [5] [nM]
CC[C@@H]1C(=O)N(C)c2cnc(Nc3ccc(C(=O)NC4CCN(C)CC4)cc3OC)nc2N1C1CCCC1 [BI-2536] | > 1000 | dose limited by myelosupression | demonstrated activity | – | – | – | – | –
O=C1NCCN1CCNc1ncc(Cl)c(-c2cc3cccc(-c4cc(F)ncc4Cl)c3s2)n1 [Example 13, 1-(2-{5-Chloro-4-[7-(5-chloro-2-fluoropyridin-4-yl)-benzo[b]thiophen-2-yl]pyrimidin-2-ylamino}ethyl)imidazolidin-2-one] | – | – | – | ~23 | 45 | 40 | 42 | 11
